# Reference: patent US11254663B2 (BRISTOL-MYERS SQUIBB COMPANY, priority 2019, dated 2022)
# Target: FXR (Homo sapiens (Human), UniProt Q96RI1)
# Assay: transient human FXR/Gal4-luciferase reporter assay
# Assay type: cell-based
# Conditions: Gal4-hFXR fusion construct, HEK293 reporter cells; response relative to 8 μM GW-4064
# Procedure, shortened: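 HEK293 cells stably carrying a 5×Gal4 response element–firefly luciferase reporter were transiently transfected overnight with a Gal4 DBD–human FXR LBD fusion plasmid. Compound was added in DMSO and cells were incubated overnight at 37 °C, 5% CO2. Activity was read as Steady-Glo luminescence.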
# Sequence of FXR (Q96RI1 262-486): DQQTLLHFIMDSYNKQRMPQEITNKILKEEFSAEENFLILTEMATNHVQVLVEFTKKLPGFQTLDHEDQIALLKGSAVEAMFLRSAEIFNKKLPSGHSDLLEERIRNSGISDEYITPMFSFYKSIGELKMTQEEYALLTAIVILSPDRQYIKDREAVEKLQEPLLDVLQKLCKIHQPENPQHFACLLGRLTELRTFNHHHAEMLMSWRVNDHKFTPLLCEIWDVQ
row,Compound,EC50 [nM]
1,"CC(C)(F)c1nc(C23CCC(CN(c4cccc(C5=CC6(C5)CC(C(C)(C)O)C6)c4)C(=O)[C@H]4C[C@](O)(C(F)(F)F)C4)(CC2)CC3)no1 (stereo partly drawn) [Example 590, (cis)-N-((4-(5-(2-fluoropropan-2-yl)-1,2,4-oxadiazol-3-yl)bicyclo[2.2.2]octan-1-yl)methyl)-3-hydroxy-N-(3-(6-(2-hydroxypropan-2-yl)spiro[3.3]hept-1-en-2-yl)phenyl)-3-(trifluoromethyl)cyclobutane-1-carboxamide]",11
2,"CC(C)(F)c1nc(C23CCC(CN(c4cccc(N5CC6(COC6)C5)c4)C(=O)[C@H]4C[C@](O)(C(F)(F)F)C4)(CC2)CC3)no1 [Example 592, (cis)-N-(3-(2-oxa-6-azaspiro[3.3]heptan-6-yl)phenyl)-N-((4-(5-(2-fluoropropan-2-yl)-1,2,4-oxadiazol-3-yl)bicyclo[2.2.2]octan-1-yl)methyl)-3-hydroxy-3-(trifluoromethyl)cyclobutane-1-carboxamide]",970
3,"CC(C)(C#N)OC(=O)N(CC12CCC(c3noc(C(C)(C)F)n3)(CC1)CC2)c1cccc(-c2ccc(C(C)(C)O)cc2)c1 [Example 598, 2-cyanopropan-2-yl ((4-(5-(2-fluoropropan-2-yl)-1,2,4-oxadiazol-3-yl)bicyclo[2.2.2]octan-1-yl)methyl)(4′-(2-hydroxypropan-2-yl)-[1,1′-biphenyl]-3-yl) carbamate]",29
4,"CC(C)(O)c1ccc(-c2cccc(N(CC34CCC(c5noc(C(C)(C)F)n5)(CC3)CC4)C(=O)N[C@H]3CC[C@](C)(O)CC3)c2)cc1 [Example 599, 1-((4-(5-(2-fluoropropan-2-yl)-1,2,4-oxadiazol-3-yl)bicyclo[2.2.2]octan-1-yl)methyl)-3-((trans)-4-hydroxy-4-methylcyclohexyl)-1-(4′-(2-hydroxypropan-2-yl)-[1,1′-biphenyl]-3-yl)urea]",30
5,"O=C(C1CC(O)(C(F)(F)F)C1)N(CC12CCC(NS(=O)(=O)C(F)(F)F)(CC1)CC2)c1cccc(-c2ccc(OC(F)F)cc2)c1 (stereo not drawn) [Example 603, (cis)-N-(4′-(difluoromethoxy)-[1,1′-biphenyl]-3-yl)-3-hydroxy-3-(trifluoromethyl)-N-((4-((trifluoromethyl)sulfonamido)bicyclo[2.2.2]octan-1-yl)methyl)cyclobutane-1-carboxamide]",1820
6,"CC(C)NC(=O)NC12CCC(CN(C(=O)C3CC(O)(C(F)(F)F)C3)c3cccc(-c4ccc(OC(C)C)cc4)c3)(CC1)CC2 (stereo not drawn) [Example 604, (cis)-3-hydroxy-N-(4′-isopropoxy-[1,1′-biphenyl]-3-yl)-N-((4-(3-isopropylureido)bicyclo[2.2.2]octan-1-yl)methyl)-3-(trifluoromethyl)cyclobutane-1-carboxamide]",968
7,"CC(C)(C#N)Oc1ccc(-c2ccnc(N(CC34CCC(c5ccc(C(C)(F)F)cn5)(CC3)CC4)C(=O)OC(C)(C)C(F)(F)F)c2)cc1 [Example 606, 1,1,1-trifluoro-2-methylpropan-2-yl (4-(4-((2-cyanopropan-2-yl)oxy)phenyl)pyridin-2-yl)((4-(5-(1,1-difluoroethyl)pyridin-2-yl)bicyclo[2.2.2]octan-1-yl)methyl)carbamate]",95
8,"CC(C)(O)c1ccc(-c2ccnc(N(CC34CCC(c5noc(C(C)(F)F)n5)(CC3)CC4)C(=O)OC(C)(C)C(F)(F)F)c2)cc1 [Example 609, 1,1,1-trifluoro-2-methylpropan-2-yl((4-(5-(1,1-difluoroethyl)-1,2,4-oxadiazol-3-yl)bicyclo[2.2.2]octan-1-yl)methyl)(4-(4-(2-hydroxypropan-2-yl)phenyl)pyridin-2-yl)carbamate]",30
9,"CC(C)Oc1ccc(-c2ccnc(N(CC34CCC(c5noc(C(C)(F)F)n5)(CC3)CC4)C(=O)OC(C)(C)C(F)(F)F)c2)cc1 [Example 610, 1,1,1-trifluoro-2-methylpropan-2-yl ((4-(5-(1,1-difluoroethyl)-1,2,4-oxadiazol-3-yl)bicyclo[2.2.2]octan-1-yl)methyl)(4-(4-isopropoxyphenyl)pyridin-2-yl)carbamate]",47

# Next, values leading:
row,EC50 [nM],Compound
1,42,"CC(C)(F)c1nc(C23CCC(CN(c4cccc(C5=CCC(C(C)(C)O)CC5)c4)C(=O)[C@H]4C[C@](O)(C(F)(F)F)C4)(CC2)CC3)no1 (stereo partly drawn) [Example 587, (cis)-N-((4-(5-(2-fluoropropan-2-yl)-1,2,4-oxadiazol-3-yl)bicyclo[2.2.2]octan-1-yl)methyl)-3-hydroxy-N-(4′-(2-hydroxypropan-2-yl)-2′,3′,4′,5′-tetrahydro-[1,1′-biphenyl]-3-yl)-3-(trifluoromethyl)cyclobutane-1-carboxamide]"
2,395,"CC(C)(F)c1nc(C23CCC(CN(c4cccc(C5=CCOCC5)c4)C(=O)[C@H]4C[C@](O)(C(F)(F)F)C4)(CC2)CC3)no1 [Example 588, (cis)-N-(3-(3,6-dihydro-2H-pyran-4-yl)phenyl)-N-((4-(5-(2-fluoropropan-2-yl)-1,2,4-oxadiazol-3-yl)bicyclo[2.2.2]octan-1-yl)methyl)-3-hydroxy-3-(trifluoromethyl) cyclobutane-1-carboxamide]"
3,77,"CC(C)(F)c1nc(C23CCC(CN(C(=O)OC(C)(C)C(F)(F)F)c4cccc(-c5ccc(C6(C#N)CC6)c(F)c5)c4)(CC2)CC3)no1 [Example 591, 1,1,1-trifluoro-2-methylpropan-2-yl (4′-(1-cyanocyclopropyl)-3′-fluoro-[1,1′-biphenyl]-3-yl)((4-(5-(2-fluoropropan-2-yl)-1,2,4-oxadiazol-3-yl)bicyclo[2.2.2]octan-1-yl)methyl) carbamate]"
4,566,"CC(C)(O)c1ccc(-c2cccc(N(CC34CCC(c5noc(C(C)(C)F)n5)(CC3)CC4)C(=O)[C@H]3C[C@](O)(C(F)(F)F)C3)c2)nn1 [Example 593, (cis)-N-((4-(5-(2-fluoropropan-2-yl)-1,2,4-oxadiazol-3-yl)bicyclo[2.2.2]octan-1-yl)methyl)-3-hydroxy-N-(3-(6-(2-hydroxypropan-2-yl)pyridazin-3-yl)phenyl)-3-(trifluoromethyl)cyclobutane-1-carboxamide]"
5,1840,"CC(C)(F)c1nc(C23CCC(CN(C(=O)C45CC(F)(C4)C5)c4cccc(-c5cn[nH]c(=O)c5)c4)(CC2)CC3)no1 [Example 594, 3-fluoro-N-((4-(5-(2-fluoropropan-2-yl)-1,2,4-oxadiazol-3-yl)bicyclo[2.2.2]octan-1-yl)methyl)-N-(3-(6-oxo-1,6-dihydropyridazin-4-yl)phenyl)bicyclo[1.1.1]pentane-1-carboxamide]"
6,64,"CC(C)(O)c1ccc(-c2cccc(N(CC34CCC(c5noc(C(C)(C)F)n5)(CC3)CC4)C(=O)[C@H]3C[C@](O)(C(F)(F)F)C3)n2)cc1 [Example 595, (cis)-N-((4-(5-(2-fluoropropan-2-yl)-1,2,4-oxadiazol-3-yl)bicyclo[2.2.2]octan-1-yl)methyl)-3-hydroxy-N-(6-(4-(2-hydroxypropan-2-yl)phenyl)pyridin-2-yl)-3-(trifluoromethyl)cyclobutane-1-carboxamide]"
7,321,"CCOc1ncc(-c2cc(N(CC34CCC(c5noc(C(C)(C)C)n5)(CC3)CC4)C(=O)C34CC(F)(C3)C4)ccn2)cn1 [Example 596, N-((4-(5-(tert-butyl)-1,2,4-oxadiazol-3-yl)bicyclo[2.2.2]octan-1-yl)methyl)-N-(2-(2-ethoxypyrimidin-5-yl)pyridin-4-yl)-3-fluorobicyclo[1.1.1]pentane-1-carboxamide]"
8,226,"CC(C)(C)c1nc(C23CCC(CN(C(=O)C45CC(F)(C4)C5)c4ccnc(-c5cnc(C6CC6)nc5)c4)(CC2)CC3)no1 [Example 597, N-((4-(5-(tert-butyl)-1,2,4-oxadiazol-3-yl)bicyclo[2.2.2]octan-1-yl)methyl)-N-(2-(2-cyclopropylpyrimidin-5-yl)pyridin-4-yl)-3-fluorobicyclo[1.1.1]pentane-1-carboxamide]"
9,142,"CC(C)OC(=O)NC12CCC(CN(C(=O)C3CC(O)(C(F)(F)F)C3)c3cccc(-c4ccc(C(C)(C)O)cc4)c3)(CC1)CC2 (stereo not drawn) [Example 602, Isopropyl (4-(((cis)-3-hydroxy-N-(4′-(2-hydroxypropan-2-yl)-[1,1′-biphenyl]-3-yl)-3-(trifluoromethyl)cyclobutane-1-carboxamido)methyl)bicyclo[2.2.2]octan-1-yl)carbamate]"
10,52,"CC(C)(O)c1ccc(-c2ccnc(N(CC34CCC(c5ccc(C(C)(F)F)cn5)(CC3)CC4)C(=O)OC(C)(C)C(F)(F)F)c2)cc1 [Example 605, 1,1,1-trifluoro-2-methylpropan-2-yl((4-(5-(1,1-difluoroethyl)pyridin-2-1)bicyclo[2.2.2]octan-1-yl)methyl)(4-(4-(2-hydroxypropan-2-yl)phenyl)pyridin-2-yl)carbamate]"
11,96,"CC(C)(O)c1ccc(-c2ccnc(N(CC34CCC(c5ccc(C(C)(F)F)cn5)(CC3)CC4)C(=O)OC(C)(C)C(F)(F)F)c2)nc1 [Example 607, 1,1,1-trifluoro-2-methylpropan-2-yl ((4-(5-(1,1-difluoroethyl)pyridin-2-yl)bicyclo[2.2.2]octan-1-yl)methyl)(5-(2-hydroxypropan-2-yl)-[2,4′-bipyridin]-2′-yl)carbamate]"
12,301,"CC(C)(O)c1cnc(-c2ccnc(N(CC34CCC(c5ccc(C(C)(F)F)cn5)(CC3)CC4)C(=O)OC(C)(C)C(F)(F)F)c2)nc1 [Example 608, 1,1,1-trifluoro-2-methylpropan-2-yl ((4-(5-(1,1-difluoroethyl)pyridin-2-yl)bicyclo[2.2.2]octan-1-yl)methyl)(4-(5-(2-hydroxypropan-2-yl)pyrimidin-2-yl)pyridin-2-yl) carbamate]"
13,41,"CC(C)(C)NC(=O)N(CC12CCC(c3noc(C(F)(F)F)n3)(CC1)CC2)c1cccc(-c2ccc(C(C)(C)O)cc2)c1 [Example 611, 3-(tert-butyl)-1-(4′-(2-hydroxypropan-2-yl)-[1,1′-biphenyl]-3-yl)-1-((4-(5-(trifluoromethyl)-1,2,4-oxadiazol-3-yl)bicyclo[2.2.2]octan-1-yl)methyl) urea]"
